Drawing on ChEMBL document CHEMBL2163236, “7-Oxo-[1,4]oxazino[2,3,4-ij]quinoline-6-carboxamides as selective CB(2) cannabinoid receptor ligands: structural investigations around a novel class of full agonists” (J Med Chem, 2012), this text covers Ratio Ki, Ki and IC50 for 21 compounds.

The species named for one assay is Homo sapiens. The experiment in a line: Selectivity ratio of Ki for human recombinant CB1 receptor to KI for human recombinant CB2 receptor.
The target of assay [1] is Cannabinoid receptor 1 (Rattus norvegicus, UniProt P20272). The experiment in a line: Displacement of [3H]CP-55940 from CB1 receptor in Sprague-Dawley rat brain by scintillation counting. (In general: Loss of bound radioactivity is the signal in a displacement assay; it reports binding, not function.)
In assay [2] the target is T1, Cannabinoid receptor 2 (Rattus norvegicus, UniProt Q9QZN9).
T1 sequence (Q9QZN9 whole entry): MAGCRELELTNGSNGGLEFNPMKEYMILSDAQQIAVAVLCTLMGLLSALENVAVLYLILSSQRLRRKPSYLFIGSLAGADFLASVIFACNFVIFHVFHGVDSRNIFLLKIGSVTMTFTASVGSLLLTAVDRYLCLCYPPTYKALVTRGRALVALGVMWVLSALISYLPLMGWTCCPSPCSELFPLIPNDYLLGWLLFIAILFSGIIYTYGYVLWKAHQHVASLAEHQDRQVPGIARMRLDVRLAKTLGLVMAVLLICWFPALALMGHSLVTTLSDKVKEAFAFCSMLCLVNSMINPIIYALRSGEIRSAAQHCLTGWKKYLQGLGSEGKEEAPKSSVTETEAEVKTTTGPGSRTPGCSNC
The experiment in a line: Displacement of [3H]CP-55940 from CB2 receptor in Sprague-Dawley rat spleen by scintillation counting.

Assay [3] addresses T2, Cannabinoid receptor 2 (Homo sapiens, UniProt P34972). The experiment in a line: Agonist activity at human recombinant CB2 receptor expressed in CHO cell membranes assessed as inhibition of forskolin-induced cAMP accumulation. Type of assay: functional, cell-based. (Cyclic AMP is a second messenger, typically raised through Gs and lowered through Gi signalling.)
Assay [4] concerns the target T2, Cannabinoid receptor 2. The experiment in a line: Displacement of [3H]CP-55940 from human recombinant CB2 receptor expressed in CHO cell membranes incubated for 60 mins by scintillation counting.
Assay [5] deals with Cannabinoid receptor 1 (Homo sapiens, UniProt P21554). The experiment in a line: Displacement of [3H]CP-55940 from human recombinant CB1 receptor expressed in CHO cell membranes incubated for 90 mins by scintillation counting.
Chain of Cannabinoid receptor 1 (Homo sapiens, UniProt P21554) (P21554 whole entry): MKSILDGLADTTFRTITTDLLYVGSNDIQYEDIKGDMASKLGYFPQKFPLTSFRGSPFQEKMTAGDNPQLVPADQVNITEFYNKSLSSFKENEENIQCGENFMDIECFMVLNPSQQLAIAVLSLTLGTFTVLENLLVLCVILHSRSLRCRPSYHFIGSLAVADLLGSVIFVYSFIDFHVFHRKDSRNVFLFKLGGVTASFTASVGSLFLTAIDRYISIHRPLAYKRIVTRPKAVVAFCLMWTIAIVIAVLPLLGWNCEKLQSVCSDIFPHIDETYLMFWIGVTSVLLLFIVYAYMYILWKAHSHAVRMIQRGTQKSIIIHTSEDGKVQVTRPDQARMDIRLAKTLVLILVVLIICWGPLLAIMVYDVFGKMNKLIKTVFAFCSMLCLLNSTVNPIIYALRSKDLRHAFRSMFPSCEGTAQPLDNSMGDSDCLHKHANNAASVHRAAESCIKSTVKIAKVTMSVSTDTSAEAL

T2 sequence (P34972 whole entry): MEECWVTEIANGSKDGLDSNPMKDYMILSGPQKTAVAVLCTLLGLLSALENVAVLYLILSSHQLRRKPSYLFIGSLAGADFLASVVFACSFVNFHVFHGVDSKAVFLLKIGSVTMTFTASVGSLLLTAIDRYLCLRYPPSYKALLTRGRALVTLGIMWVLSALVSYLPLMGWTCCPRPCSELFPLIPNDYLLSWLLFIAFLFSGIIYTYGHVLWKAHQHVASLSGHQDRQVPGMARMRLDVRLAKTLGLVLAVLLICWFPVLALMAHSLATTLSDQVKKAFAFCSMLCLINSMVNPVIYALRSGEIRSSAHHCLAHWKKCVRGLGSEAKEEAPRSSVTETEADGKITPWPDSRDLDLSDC
Chain of Cannabinoid receptor 1 (Rattus norvegicus, UniProt P20272) (P20272 whole entry): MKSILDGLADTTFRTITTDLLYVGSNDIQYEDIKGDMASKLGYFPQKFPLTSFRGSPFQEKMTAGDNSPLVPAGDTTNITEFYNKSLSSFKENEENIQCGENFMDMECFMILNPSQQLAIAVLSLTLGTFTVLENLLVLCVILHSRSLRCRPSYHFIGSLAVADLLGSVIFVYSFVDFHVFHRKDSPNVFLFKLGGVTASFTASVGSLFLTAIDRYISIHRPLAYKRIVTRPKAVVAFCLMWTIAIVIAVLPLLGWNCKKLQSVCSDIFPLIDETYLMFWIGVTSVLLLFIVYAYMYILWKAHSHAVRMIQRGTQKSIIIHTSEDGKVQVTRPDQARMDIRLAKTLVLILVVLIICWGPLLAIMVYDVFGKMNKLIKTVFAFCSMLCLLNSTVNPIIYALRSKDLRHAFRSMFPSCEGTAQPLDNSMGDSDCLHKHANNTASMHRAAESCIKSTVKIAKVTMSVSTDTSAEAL

For orientation: Ki means a dissociation constant, usually derived from enzyme kinetics or from competition with a known ligand. Broadly, the IC50 is the concentration that gives 50% inhibition. As for `CCC1COc2cccc3c(=O)c(C(=O)NC45CC6CC(CC(C6)C4)C5)cn1c23` (racemic), the Ratio Ki in the assay listed under Homo sapiens turned out to be 88. The Ki on Cannabinoid receptor 1 [1] came out at 725 nM; at Cannabinoid receptor 2 [2], 13.5 nM; at Cannabinoid receptor 2 [4] it was 7.83 nM; on Cannabinoid receptor 1 [5], 689 nM. Further, the IC50 on Cannabinoid receptor 2 [3] came out at 38 nM.
For the compound `CCC1COc2cccc3c(=O)c(C(=O)NC4C5CC6CC(C5)CC4C6)cn1c23` (racemic), the Ratio Ki in the assay filed under Homo sapiens was determined as 30. The inhibition constant Ki at Cannabinoid receptor 1 [1] is 425 nM; at Cannabinoid receptor 2 [2] it was 16.1 nM; at Cannabinoid receptor 2 [4], 13.2 nM; on Cannabinoid receptor 1 [5], 389 nM. Also, on Cannabinoid receptor 2 [3], the IC50 amounted to 57 nM.
As for `CCC1COc2cccc3c(=O)c(C(=O)NC(C)CCC(C)C)cn1c23` (racemic), in the assay listed under Homo sapiens, the Ratio Ki is over 633. The inhibitory constant (Ki) on Cannabinoid receptor 1 [1] is over 10000 nM; on Cannabinoid receptor 2 [2], 196 nM; on Cannabinoid receptor 2 [4], 15.8 nM; at Cannabinoid receptor 1 [5] it was over 10000 nM. Moreover, the half-inhibitory concentration (IC50) at Cannabinoid receptor 2 [3] stood at 62 nM.
As to `CCC1COc2cccc3c(=O)c(C(=O)Nc4ccncc4)cn1c23` (racemic), the Ratio Ki in the assay filed under Homo sapiens was 8. Further, the inhibition constant Ki at Cannabinoid receptor 1 [1] was 1380 nM; on Cannabinoid receptor 2 [2], 183 nM; at Cannabinoid receptor 2 [4], 152 nM; at Cannabinoid receptor 1 [5] it was 1150 nM. For the same compound, at Cannabinoid receptor 2 [3], the half-maximal inhibitory concentration (IC50) stood at 683 nM.
For the compound `CCC1COc2cccc3c(=O)c(C(=O)Nc4nccs4)cn1c23` (racemic), the Ratio Ki in the assay listed under Homo sapiens is 5. In addition, the inhibition constant (Ki) stood at 1620 nM on Cannabinoid receptor 1 [1], 324 nM at Cannabinoid receptor 2 [2], 265 nM at Cannabinoid receptor 2 [4] and 1360 nM on Cannabinoid receptor 1 [5]. In addition, the half-inhibitory concentration (IC50) on Cannabinoid receptor 2 [3] is 1130 nM.
Regarding `CCC1COc2cccc3c(=O)c(C(=O)N(C(C)C)C(C)C)cn1c23` (racemic), the Ratio Ki in the assay filed under Homo sapiens was over 118. For the same compound, the Ki was over 10000 nM on Cannabinoid receptor 1 [1], 104 nM on Cannabinoid receptor 2 [2], 85 nM on Cannabinoid receptor 2 [4] and over 10000 nM on Cannabinoid receptor 1 [5]. Further, on Cannabinoid receptor 2 [3], the IC50 was 423 nM.
With `O=C(NC1CCCCC1)c1cn2c3c(cccc3c1=O)OCC2c1ccccc1` (racemic), in the assay filed under Homo sapiens, the Ratio Ki worked out at 166. Further, the inhibition constant (Ki) at Cannabinoid receptor 1 [1] amounted to 1150 nM; at Cannabinoid receptor 2 [2], 19.3 nM; at Cannabinoid receptor 2 [4], 2.52 nM; at Cannabinoid receptor 1 [5] it was 420 nM. For the same compound, on Cannabinoid receptor 2 [3], the IC50 stood at 15.2 nM.
As for `O=C(NC1CCCCCC1)c1cn2c3c(cccc3c1=O)OCC2c1ccccc1` (racemic), the Ratio Ki in the assay listed under Homo sapiens is 383. In addition, the inhibition constant Ki at Cannabinoid receptor 1 [1] was 372 nM; on Cannabinoid receptor 2 [2] it was 14.7 nM; on Cannabinoid receptor 2 [4], 0.81 nM; on Cannabinoid receptor 1 [5], 310 nM. Further, the IC50 on Cannabinoid receptor 2 [3] was found to be 5.23 nM.
As for `O=C(NC12CC3CC(CC(C3)C1)C2)c1cn2c3c(cccc3c1=O)OCC2c1ccccc1` (racemic), the Ratio Ki in the assay listed under Homo sapiens is 19. For the same compound, the inhibition constant Ki on Cannabinoid receptor 1 [1] was 670 nM; on Cannabinoid receptor 2 [2], 18.3 nM; at Cannabinoid receptor 2 [4], 14.2 nM; on Cannabinoid receptor 1 [5], 265 nM. The IC50 on Cannabinoid receptor 2 [3] was 26 nM.
On to `CC12CC3CC(C)(C1)CC(NC(=O)c1cn4c5c(cccc5c1=O)OCC4c1ccccc1)(C3)C2` (racemic), for which the Ratio Ki in the assay filed under Homo sapiens worked out at 133. Also, the Ki amounted to 545 nM at Cannabinoid receptor 1 [1], 46 nM at Cannabinoid receptor 2 [2], 3.45 nM at Cannabinoid receptor 2 [4] and 460 nM on Cannabinoid receptor 1 [5]. Moreover, the 50% inhibitory concentration (IC50) at Cannabinoid receptor 2 [3] was 18.3 nM.
`CC1Oc2cccc3c(=O)c(C(=O)NC4CCCCC4)cn(c23)C1c1ccccc1` (racemic): the Ratio Ki in the assay filed under Homo sapiens was determined as 5.83. Further, the inhibition constant Ki at Cannabinoid receptor 1 [1] stood at 3520 nM; at Cannabinoid receptor 2 [2], 710 nM; at Cannabinoid receptor 2 [4] it was 536 nM; at Cannabinoid receptor 1 [5] it was 3130 nM. Also, the IC50 on Cannabinoid receptor 2 [3] was 2750 nM.
Turning to `CC1Oc2cccc3c(=O)c(C(=O)NC45CC6CC(CC(C6)C4)C5)cn(c23)C1c1ccccc1` (racemic), in the assay listed under Homo sapiens, the Ratio Ki stood at 7.33. Moreover, the Ki at Cannabinoid receptor 1 [1] was 2640 nM; on Cannabinoid receptor 2 [2], 443 nM; on Cannabinoid receptor 2 [4], 332 nM; at Cannabinoid receptor 1 [5] it was 2440 nM. Moreover, the concentration for half-maximal inhibition (IC50) at Cannabinoid receptor 2 [3] was determined as 1680 nM.
As for `Cc1ccc(C2COc3cccc4c(=O)c(C(=O)NC5CCCCC5)cn2c34)cc1` (racemic), the Ratio Ki in the assay filed under Homo sapiens was found to be 8.78. The Ki at Cannabinoid receptor 1 [1] is 4570 nM; at Cannabinoid receptor 2 [2] it was 547 nM; at Cannabinoid receptor 2 [4], 468 nM; on Cannabinoid receptor 1 [5], 4110 nM. On Cannabinoid receptor 2 [3], the IC50 is 2460 nM.
As for `Cc1ccc(C2COc3cccc4c(=O)c(C(=O)NC56CC7CC(CC(C7)C5)C6)cn2c34)cc1` (racemic), the Ratio Ki in the assay filed under Homo sapiens was 9.41. Also, the inhibitory constant (Ki) turned out to be 4150 nM on Cannabinoid receptor 1 [1], 482 nM on Cannabinoid receptor 2 [2], 412 nM at Cannabinoid receptor 2 [4] and 3880 nM on Cannabinoid receptor 1 [5]. For the same compound, the IC50 on Cannabinoid receptor 2 [3] came to 2210 nM.
As to `Cc1cc2c3c(c1)c(=O)c(C(=O)NC1CCCCC1)cn3C(c1ccccc1)CO2` (racemic), the Ratio Ki in the assay filed under Homo sapiens is 73. The inhibition constant Ki was 1570 nM at Cannabinoid receptor 1 [1], 25 nM at Cannabinoid receptor 2 [2], 18.4 nM on Cannabinoid receptor 2 [4] and 1350 nM on Cannabinoid receptor 1 [5]. Further, on Cannabinoid receptor 2 [3], the IC50 turned out to be 110 nM.
On to `CC1COc2cccc3c(=O)c(C(=O)NC4CCCCC4)cn1c23` (racemic), for which the Ratio Ki in the assay filed under Homo sapiens came to 36. Further, the inhibitory constant (Ki) on Cannabinoid receptor 1 [1] is 2630 nM; on Cannabinoid receptor 2 [2], 65 nM; at Cannabinoid receptor 2 [4], 60 nM; at Cannabinoid receptor 1 [5], 2150 nM. Besides, on Cannabinoid receptor 2 [3], the IC50 turned out to be 245 nM.
Regarding `CC1COc2cccc3c(=O)c(C(=O)NC4CCCCCC4)cn1c23` (racemic), the Ratio Ki in the assay filed under Homo sapiens was over 263. The Ki is over 10000 nM on Cannabinoid receptor 1 [1], 52 nM at Cannabinoid receptor 2 [2], 38 nM on Cannabinoid receptor 2 [4] and over 10000 nM at Cannabinoid receptor 1 [5]. For the same compound, at Cannabinoid receptor 2 [3], the 50% inhibitory concentration (IC50) came out at 210 nM.
Turning to `CC1COc2cccc3c(=O)c(C(=O)NC45CC6CC(CC(C6)C4)C5)cn1c23` (racemic), the Ratio Ki in the assay listed under Homo sapiens is over 212. Besides, the Ki at Cannabinoid receptor 1 [1] was over 10000 nM; at Cannabinoid receptor 2 [2], 55 nM; on Cannabinoid receptor 2 [4], 47 nM; on Cannabinoid receptor 1 [5], over 10000 nM. Moreover, the IC50 at Cannabinoid receptor 2 [3] stood at 230 nM.
For `CCC1COc2cccc3c(=O)c(C(=O)NC4CCCCC4)cn1c23` (racemic), the Ratio Ki in the assay filed under Homo sapiens is 37. Further, the inhibition constant (Ki) on Cannabinoid receptor 1 [1] amounted to 972 nM; at Cannabinoid receptor 2 [2], 24 nM; at Cannabinoid receptor 2 [4], 22 nM; on Cannabinoid receptor 1 [5], 821 nM. Also, at Cannabinoid receptor 2 [3], the IC50 came to 62 nM.
For the compound `CCC1COc2cccc3c(=O)c(C(=O)NC4CCCCCC4)cn1c23` (racemic), the Ratio Ki in the assay listed under Homo sapiens is 47. For the same compound, the inhibitory constant (Ki) on Cannabinoid receptor 1 [1] was found to be 498 nM; at Cannabinoid receptor 2 [2] it was 11.4 nM; on Cannabinoid receptor 2 [4] it was 9.24 nM; at Cannabinoid receptor 1 [5] it was 433 nM. Further, the IC50 at Cannabinoid receptor 2 [3] was determined as 42 nM.
On to `O=C(NC1CCCC1)c1cn2c3c(cccc3c1=O)OCC2c1ccccc1` (racemic), for which the Ratio Ki in the assay filed under Homo sapiens was 1.35. Besides, the Ki is 150 nM at Cannabinoid receptor 1 [1], 110 nM on Cannabinoid receptor 2 [2], 98 nM on Cannabinoid receptor 2 [4] and 132 nM on Cannabinoid receptor 1 [5]. Moreover, the concentration for half-maximal inhibition (IC50) at Cannabinoid receptor 2 [3] came to 472 nM.
